Patent publication US10212958B2, “Method for producing stabilized whole wheat flour” (Intercontinental Great Brands LLC, priority 2011, dated 2019)
“And” between values parts separate entries of the source, which are not always exact repeats. Identical values can stand only once.

What was measured:
[1] = system: Novozyme lipase from Aspergillus oryzae; test: Titrimetric lipase activity after 40 min pre-incubation of the enzyme in acid solution; assay type: biochemical
Method: The objective of this example was to test the effect of acid type and concentration on the lipase activity after pre-incubation of the enzyme for 40 minutes in acid solution. The following acids and levels were tested; (1) 5 ml lactic acid (8 g/1000 ml pH 2.57), add 20 μl lipase and 980 μl water inhibition 40 min; (2) 5 ml lactic acid (2 g/1000 ml pH 2.85), add 20 μl lipase and 980 μl water inhibition 40 min; (3) 5 ml lactic acid (16 g/1000 ml pH 2.48), add 20 μl lipase and 980 μl water inhibition 40 min; (4) 5 ml acetic acid (1 g/1000 ml pH 2.80), add 20 μl lipase and 980 μl water inhibition 40 min; (5) 5 ml HCL (4 g/1000 ml, pH 1.5), add 20 μl lipase and 980 μl water inhibition 40 min; (6) 5 ml green tea extract (8 g/1000 ml), add 20 μl lipase and 980 μl water inhibition 40 min.
Lipase (3.1.1.3) activity was adapted from the method set forth in “Worthington, Von.; The Worthington Manual; 1993 from Worthington Biochemical Corporation, 730 Vassar Avenue, Lakewood, N.J. 08701”.
H. Olive oil-gum Arabic emulsion: Prepare by dissolving 16.5 grams of gum Arabic in 130 ml of reagent grade water. Once the material is in solution, dilute to a final volume of 165 ml with reagent grade water. Add 20 ml of reagent grade olive oil and 15 grams crushed ice. Blend the mixture in a Waring blender at low speed for 3 min and filter the emulsion through glass wool. Prepare fresh daily. Enzyme:
The titration can be measured with a laboratory pH meter (a Corning pH meter 360i equipped with A-58905-66 High-performance combination pH electrode).
Blank rate determination: Adjust the pH of the reaction mixture to 8.0 and record the volume of titrant required to maintain the pH at 8.0 for 3-4 minutes after a constant rate is achieved. Determine the “blank rate” as the volume of titrant added per minute from the final linear portion of the curve.
Sample determination: at zero time, add appropriately diluted enzyme and readjust the pH to 8.0 if necessary. Record the volume of titrant required to maintain the pH at 8.0 for 5-6 minutes. Determine the “sample rate” as the volume of titrant added per minute from the linear portion of the curve.

[2] = system: free fatty acids formed in whole grain flour; test: Free fatty acid content of whole grain flour, fresh and after accelerated storage (SPE, GC-FID); design: species or system wheat
Method: The objective of this example was to test the effect of acid tempering on the stability of whole grain flour during storage. The amount of free fatty acid formed was measured after flour storage in a sealed glass jar for 30 days under accelerated storage conditions of 92° F. […] The flours tested were: […] Results were compared to the amount of free fatty acids formed in untreated control flour. Whole grain flours were made with natural proportion of bran component and endosperm obtained from the flour mill. Whole grain flour ash content was used to confirm composition. Free fatty acid content of whole grain flour (fresh flour and 30 days aged flour) was determined according to the following method: Free fatty acid content of the flours was adapted from the method set forth in “Jong, C.; Badings, H. T.; Journal of High Resolution Chromatography; 1990; Determination of Free Fatty Acids in Milk and Cheese Procedures for Extraction, Clean up, and Capillary Gas Chromatography Analysis”. Lipid extracts, containing free fatty acids, are obtained from foods by extraction with acidified organic solvents. The anhydrous lipid extracts are passed through a weak anion exchange SPE cartridge to isolate the free fatty acids from the coextracted material, particularly neutral glycerides. • a. […] HP5890 Series II] • b. Autosampler compatible with the GC, [example: HP7673] • c. Software system capable of collecting chromatographic data, calculating statistics and tabulating results • d. Analytical balance with 0.0001 g resolution, 150 g capacity • e. Centrifuge capable of 3000 rpm (2050 rcf), with temperature control, (optional) • f. Polytron able to homogenize samples at 25000 rpm [example: Brinkmann Instruments, Polytron Kinematica AG Model PT 1300 D] • g. Vortex Mixer • h. Solvent Dispensers with inert plastic components [example: […] Column: […] SPE cartridges: […] Glass centrifuge test tubes with teflon lined screw caps, size: 16×125 mm • 4. Corex glass centrifuge tubes with teflon lined screw caps, 45 mL [example: COREX II No. 8422-A] • 5. Whatman Filter paper #1, 125 mm Diameter • 6. Pyrex brand filtering funnel, short stem • 7. Disposable Culture Tubes, borosilicate glass 16×150 mm [example: VWR Cat #47729-580] • 8. Glass vials with teflon lined screw caps, 4 mL. [example: Kimble Cat #60940A 4] • 9. Autosampler vials, borosilicate glass, crimp-top with teflon lined caps • 10. Amber borosilicate bottles with teflon lined screw cap, 100 mL • 11. Clear borosilicate bottle with teflon lined screw cap, 250 mL • 12. Graduated cylinders: 250 mL, 100 mL • 13. […] Glass volumetric pipettes class A 5, 2, 1 mL and graduated 10, 5 mL • 15. Disposable Pasteur pipettes: 53⁄4 and 9 inch • 16. Microspatula, spatula, and polypropylene sample transfer tubes Reagents/Solutions Reagents and Standards • 1. Ethanol-200 proof, anhydrous, 99.5%+, stored in amber glass [Aldrich #45, 983-6 or equivalent] • 2. Hexanes-GC grade [B&J #216-4 or equivalent] • 3. iso-Propanol-GC grade [B&J #323-4 or equivalent] • 4. Methyl-tert-butylether (MTBE)-GC grade [B&J #242-4 or equivalent] • 5. Methylene chloride-GC grade [B&J #299-4 or equivalent] • 6. […] Sulfuric acid-ACS reagent, 95.0-98.0% [Fisher Reagent ACS #A800-500 or equivalent] • 8. Water Type 1 [Fisher HPLC #W5-4 or equivalent] • 9. Diatomaceous Earth [Leco part #502-327 or equivalent] • 10. […] Standards (Standard Preparation See Appendix 13.1) • a. Internal Standard: 11:0; Surrogates: 9:0 and 13:0 • b. Matrix Spike (MS) standard working solution in ethanol: MS @ 50 µg/mL. This level may be appropriate for low to mid-level determinations. Generally the FFA levels vary tremendously within a given matrix. Consequently a spike solution of varying amounts per individual FFA may be necessary per matrix. • c. Calibration Standards in hexanes establish linear range: […] Comment: 18:1 and 18:2 calculations are based on 18:0 response factor. • d. […]

[3] = AACC 10-53 Cookie Test Baking; settings: lactic acid 3000 ppm, green tea extract 7000 ppm
Excerpt: AACC 10-53 Cookie Test Baking Method was designed at Nabisco Biscuit Company for evaluation of ingredient functionality and predictive correlation between sensory and mechanical texture analysis (mechanical texture analysis by TAXT2 Texture analyzer 3 point bend or puncture test). The test is an improvement over AACC 10-52 Sugar-Snap Cookie Test Baking Method as confirmed by USDA Soft Wheat Quality Lab (Wooster Ohio). The AACC 10-53 test was adopted as the official method of the American Association of Cereal Chemists after collaborative testing by the Soft Wheat Quality Committee in 1992. The equipment, cookie dough composition, mixing procedure, baking procedure, measurement procedure, etc. used in the test are: The Standard Formulation AACC 10-53 Single Batch to Make 4 Test Cookies is: [table] [table] The general mixing procedure used is: The baketime is defined as the time required to produce a weight loss of 13.85% during baking of the formulation at 400 F. Portion four 60 g pieces of dough with minimum deformation and place on cookie sheet. Lay rolling pin across gauge bars of cookie sheet allowing weight of pin to compress the dough pieces without additional compressive force. Pick up rolling pin and place on gauge bars at end of cookie sheet, and roll only once away from you. Cut cookies with 60 mm cutter, and carefully lift scrap dough with small spatula. […]

[4] = Flour moisture (AACC Method 44-15A); assay type: physicochemical; settings: coarse bran fraction before recombining
Method: Whole grain flour pH was measured in a 10% slurry (one part flour to 9 part water) using a Corning pH meter 360i equipped with an A-58905-66 High-performance combination pH electrode. Ash is determined according to AOAC official method 923.03 for measuring ash in flour. Flour moisture was determined according to AACC Method 44-15A.

[5] = Solvent Retention Capacity (SRC) of flour, adapted from AACC 56-10; assay type: physicochemical; design: Flour SRC sucrose / Flour SRC Sodium carbonate / Flour SRC Lactic acid / Flour SRC Water: unit not given here
Method: Solvent Retention Capacity (SRC) serves as a practical test to monitor the function of specific flour components, such as the amount of damaged starch. The SRC assay method used was adapted and modified from AACC method 56-10, according to the following procedure:
• 50 ml centrifuge tubes+caps • 5% weight sodium carbonate solvent • Centrifuge (IEC, Centra GP8, 269 rotor, 2130 rpm) Procedure: • 1. Weigh 50 ml centrifuge tubes+caps (for special tubes weight O-ring seals) • 2. Weigh and add 5.00 g of bran-germ mixture to each tube (determine moisture content of mixture) • 3. Add 25 g of solvent (pre-weighed solvent aliquots) to each tube • 4. Allow it to hydrate for 20 min, shaking every 5 min (5, 10, 15, 20) • 5. Centrifuge for 15 min at 1000×g • 6. Decant supernatant and drain 5 min at 45° angle and 5 min at 90° angle. • 7. Put cap back and weigh pellet

[6] = Whole grain flour pH in 10% slurry; assay type: physicochemical
[7] = after 30 days at 92 F, flour at about pH=4.5
[8] = lactic acid 3000 ppm, green tea extract 7000 ppm

Question: Which Lipase activity ([1]; 40 min acid pre-treat 0.005 g/15 ml, 0.006 M, pH 2.8) does the source give for `CC(=O)O` [Acetic acid, acetic acid] here?
Answer: The Lipase activity was 5.33 Units/μl.

Question: What does the source list for `CC(O)C(=O)O` (stereo not shown) [Lactic acid, lactic acid]?
Answer: Lipase activity ([1]; 40 min acid pre-treat 0.02 g/15 ml, 0.015 M, pH 2.85): 6.45 Units/μl; Lipase activity ([1]; 40 min acid pre-treat 0.04 g/15 ml, 0.030 M, pH 2.57): 5.8 Units/μl; Lipase activity ([1]; 40 min acid pre-treat 0.08 g/15 ml, 0.059 M, pH 2.48): 4.15 Units/μl; Flour fatty acid formation ([2]; after 28 days at 92 F, about 9000 ppm lactic acid concentration and 4.5 pH): 1425 ppm; Flour fatty acid formation [2, 7]: 1382 ppm; Whole grain flour fatty acid content after storage ([2]; storage at 82 F, compared to control, Example 9): reduced compared to control; FFA (ppm) 3 week at 28 C. ([2]; whole grain flour, lactic acid 3000 ppm, green tea extract 7000 ppm (dry weight/initial kernel weight)): 2628 ppm and 2364 ppm; Cookie dough pH [3]: 7.65 and 7.52; coarse bran moisture [4]: 14.49; flour strength as measured by lactic acid SRC value ([5]; as a function of temper time and amount of lactic acid added, FIG. 7): did not decrease flour strength; Flour SRC Lactic acid [5, 8]: 69.11 and 69.40; Flour SRC Sodium carbonate [5, 8]: 76.58 and 78.67; Flour SRC Water [5, 8]: 59.53 and 60.35; Flour SRC sucrose [5, 8]: 95.77 and 94.23; break flour pH ([6]; break flour fraction before recombining): 4.88; fine bran pH ([6]; fine bran fraction before recombining): 4.52; Flour pH [6, 8]: 5.54 and 5.56; Flour pH ([6]; soft red whole grain flour from treated wheat): 5.6

Question: With `Cl` [hydrochloric acid] as the molecule, how does the Lipase activity ([1]; 40 min acid pre-treat 0.02 g/15 ml, 0.036 M, pH 1.5) read?
Answer: The Lipase activity was 0 Units/μl.

Question: And the “Flour fatty acid formation” value [2, 7]?
Answer: Its value is 746 ppm.

Question: With `O=P(O)(O)O` [phosphoric acid] as the molecule, how does the “Flour fatty acid formation” value [2, 7] read?
Answer: The value was 1592 ppm.
